The values that follow come from PubChem BioAssay (NCI).

Among the test systems are HCT-15 colon; UO-31 renal; COLO 205 colon; IGROV1 ovarian; NCI-H522 lung; HOP-92 NSCLC; SNB-75 CNS; M14 melanoma; RPMI-8226 leukemia; NCI-H23 lung.
What all share (assay): NCI tumour cell line growth inhibition, 48 h

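Exposure lasted 48 hours, with cells grown in 96-well plates and compounds tested at five concentrations. GI50 is the concentration that inhibits growth by half. TGI: concentration producing complete growth inhibition.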

Turning to `Cc1cc(I)cc(CN(C)CCCCN2CCCC2)c1O`, the GI50 is 15.6 µM in the test on HCT-15 colon; 28.2 µM in the test with UO-31 renal; 13.4 µM in the test on COLO 205 colon; 24.8 µM with IGROV1 ovarian; 22.4 µM in the test on NCI-H522 lung; 15.3 µM in the test on HOP-92 NSCLC. The GI50 was 16.5 µM in the test with SNB-75 CNS, 15.1 µM in the test on M14 melanoma, 15.1 µM in the test with RPMI-8226 leukemia and 34.7 µM with NCI-H23 lung. Also, the TGI in the test on HCT-15 colon was 37.3 µM; in the test with UO-31 renal, over 100 µM; in the test with COLO 205 colon, 26.1 µM; in the test on IGROV1 ovarian, 59.1 µM; in the test with NCI-H522 lung, 46.2 µM; in the test on HOP-92 NSCLC, 70.2 µM. Also, the TGI was 36.9 µM in the test with SNB-75 CNS, 29.1 µM with M14 melanoma, 36 µM in the test on RPMI-8226 leukemia and over 100 µM with NCI-H23 lung.
As to `O=C1CCC(c2ccccc2)(c2ccccc2)CC1`, the TGI in the test with HCT-15 colon was over 100 µM; with UO-31 renal it was over 100 µM; in the test with COLO 205 colon it was 89.9 µM; in the test with IGROV1 ovarian, over 100 µM; in the test with NCI-H522 lung, over 100 µM; in the test with HOP-92 NSCLC, over 100 µM. The TGI in the test with SNB-75 CNS, in the test on M14 melanoma, in the test with RPMI-8226 leukemia and in the test on NCI-H23 lung was over 100 µM each time.
`CCOc1ccc(N2C(N)=NC(N)=NC2(C)C)cc1`: the GI50 in the test with HCT-15 colon is over 100 µM; in the test on UO-31 renal it was over 100 µM; in the test on COLO 205 colon it was 69.9 µM; with IGROV1 ovarian, 46.5 µM; in the test with NCI-H522 lung, over 100 µM; in the test on HOP-92 NSCLC it was over 100 µM. For the same compound, the GI50 in the test with SNB-75 CNS was 60.5 µM; in the test on RPMI-8226 leukemia, over 100 µM; in the test with NCI-H23 lung, 58.8 µM. Also, the TGI with HCT-15 colon, in the test on UO-31 renal, in the test on COLO 205 colon, in the test on IGROV1 ovarian, in the test with NCI-H522 lung and in the test on HOP-92 NSCLC was over 100 µM each time. Also, the TGI in the test on SNB-75 CNS, in the test with RPMI-8226 leukemia and with NCI-H23 lung was over 100 µM each time.
For `CN(C)c1ccc(/C=N/Nc2ccc(-c3nc4ccccc4[nH]3)cc2)cc1`, the GI50 in the test on HCT-15 colon is 6.73 µM; with UO-31 renal, 7.44 µM; in the test with COLO 205 colon it was 20.3 µM; in the test with IGROV1 ovarian, 9.37 µM; in the test on NCI-H522 lung it was 10.3 µM; with HOP-92 NSCLC, 12.4 µM. The values for the GI50 in the test with M14 melanoma, in the test with RPMI-8226 leukemia and in the test on NCI-H23 lung were 13.2 µM, 4.6 µM and 13.8 µM, respectively. For the same compound, the TGI is 35.7 µM in the test with HCT-15 colon; 23.8 µM in the test with UO-31 renal; over 50 µM in the test on COLO 205 colon; over 50 µM with IGROV1 ovarian; 31.2 µM with NCI-H522 lung; over 50 µM in the test on HOP-92 NSCLC. Also, the TGI is 46.8 µM in the test with M14 melanoma, over 50 µM in the test on RPMI-8226 leukemia and 45.5 µM in the test with NCI-H23 lung.
For `Cc1ccc(NC(=O)NC23CC4CC(CC(F)(C4)C2)C3)cc1`, the TGI was over 100 µM in the test on UO-31 renal; over 100 µM in the test on COLO 205 colon; over 100 µM in the test on IGROV1 ovarian; over 100 µM in the test on NCI-H522 lung; over 100 µM in the test on HOP-92 NSCLC; 87.1 µM with SNB-75 CNS. Further, the TGI in the test on M14 melanoma was over 100 µM; with RPMI-8226 leukemia, 90.2 µM; in the test on NCI-H23 lung it was over 100 µM.
For `Cc1ccc(NC(=O)CCC(=O)C(C#N)c2ccc(Cl)cc2)cc1C` (centres undefined), the TGI in the test with HCT-15 colon, in the test on UO-31 renal, in the test with IGROV1 ovarian, in the test with NCI-H522 lung, in the test on HOP-92 NSCLC and in the test with SNB-75 CNS was over 100 µM in each case. For the same compound, the TGI with M14 melanoma, in the test on RPMI-8226 leukemia and with NCI-H23 lung was over 100 µM in each case.
On to `Cc1nc(Nc2ccc([N+](=O)[O-])cc2)sc1C(=O)/C=C/c1ccc(N(C)C)cc1`, for which the TGI in the test with HCT-15 colon, in the test on UO-31 renal, with COLO 205 colon, in the test on IGROV1 ovarian, in the test on NCI-H522 lung and in the test on HOP-92 NSCLC was over 100 µM throughout. In addition, the TGI with SNB-75 CNS, in the test with RPMI-8226 leukemia and in the test with NCI-H23 lung was over 100 µM each time.
For the compound `OCC1CC2CC1C1(C2)OCCO1` (centres undefined), the TGI with UO-31 renal, in the test with COLO 205 colon, with IGROV1 ovarian, with NCI-H522 lung, in the test with HOP-92 NSCLC and in the test on SNB-75 CNS was over 100 µM in each case. Moreover, the TGI with M14 melanoma, in the test with RPMI-8226 leukemia and in the test on NCI-H23 lung was over 100 µM throughout.
As to `S=C1OC2C3C4CC5C3C(O1)C1C5C4C21` (centres undefined), the TGI in the test with HCT-15 colon, in the test on UO-31 renal, in the test with COLO 205 colon, in the test with IGROV1 ovarian, in the test with NCI-H522 lung and in the test with HOP-92 NSCLC was over 100 µM in each case. Besides, the TGI in the test with SNB-75 CNS, in the test on M14 melanoma and in the test on RPMI-8226 leukemia was over 100 µM each time.
For the compound `C=C1C(=O)O[C@H]2[C@H](OC(C)=O)[C@@H](C)CCC/C(C)=C/CC[C@]3(CO3)[C@H](O)C[C@@H]12`, the GI50 is 1.84 µM in the test with HCT-15 colon; 6.29 µM in the test on UO-31 renal; 3.89 µM with COLO 205 colon; 3.37 µM with IGROV1 ovarian; 6.22 µM in the test with NCI-H522 lung; 2.11 µM in the test with HOP-92 NSCLC. For the same compound, the GI50 is 10.8 µM in the test with SNB-75 CNS, 1.84 µM in the test with RPMI-8226 leukemia and 4.87 µM with NCI-H23 lung. Besides, the TGI with HCT-15 colon was 3.76 µM; with UO-31 renal it was 19.9 µM; with COLO 205 colon it was 13.7 µM; with IGROV1 ovarian, 12.8 µM; in the test on NCI-H522 lung, 20.2 µM; in the test on HOP-92 NSCLC, 6.75 µM. The TGI came out at 22.9 µM with SNB-75 CNS, 5.49 µM in the test with RPMI-8226 leukemia and 18.3 µM in the test on NCI-H23 lung.
